Results on 26 compounds are retold here after patent publication US7834023B2 (Portola Pharmaceuticals, Inc., priority 2006, dated 2010).

The target in the test is T1, P2Y12 receptor (Homo sapiens, UniProt Q9H244).
T1 construct: endogenous in cells; host or cells: human platelets (outdated from blood banks or fresh), apyrase-washed, whole
T1 sequence (Q9H244 whole entry): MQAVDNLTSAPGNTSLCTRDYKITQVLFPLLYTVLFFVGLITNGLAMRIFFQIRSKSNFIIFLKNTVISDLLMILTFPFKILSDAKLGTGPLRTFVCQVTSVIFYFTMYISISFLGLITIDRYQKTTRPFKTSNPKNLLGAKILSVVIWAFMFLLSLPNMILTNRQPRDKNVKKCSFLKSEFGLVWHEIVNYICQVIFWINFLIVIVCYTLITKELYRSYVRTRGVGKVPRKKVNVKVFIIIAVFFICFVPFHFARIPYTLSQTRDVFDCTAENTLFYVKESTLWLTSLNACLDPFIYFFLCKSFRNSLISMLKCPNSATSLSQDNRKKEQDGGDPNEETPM
Put plainly: platelet ADP receptor binding assay (ARB): inhibition of [3H]2-MeS-ADP binding to platelets. The note with it: [3H]2-MeS-ADP binding to apyrase-washed human platelets. How it is done: 1. The Ability of Candidate Molecules to Inhibit the Binding of [^3H]2-MeS-ADP to the […] Receptor on Platelets was Determined Using a Radioligand Binding Assay.
Utilizing this assay the potency of inhibition of such compounds with respect to [^3H]2-MeS-ADP binding to whole platelets is determined. Under the conditions described in II (3) below, the binding of [^3H]2-MeS-ADP is solely due to the interaction of this ligand with the P2Y12 receptor, in that all the specific binding measured in this assay is competable with a P2Y12 antagonist (i.e., the specific binding is reduced to background levels by competition with an excess of P2Y12 antagonist, with no competition of binding when a P2Y1 antagonist is pre-incubated with the platelet preparation). [^3H]2-MeS-ADP binding experiments are routinely performed with outdated human platelets collected by standard procedures at hospital blood banks. Apyrase-washed outdated platelets are prepared as follows (all steps at room temperature, if not indicated otherwise):
Outdated platelet suspensions are diluted with 1 volume of CGS and platelets pelleted by centrifugation at 1900×g for 45 minutes. Platelet pellets are resuspended at 3-6×10^9 platelets/ml in CGS containing 1 U/ml apyrase (grade V, Sigma, St. Louis, Mo.) and incubated for 15 minutes at 37° C. After centrifugation at 730×g for 20 minutes, pellets are resuspended in Hepes-Tyrode's buffer containing 0.1% BSA (Sigma, St. Louis, Mo.) at a concentration of 6.66×10^8 platelets/ml. Binding experiments are performed after >45 minutes resting of the platelets.
Alternatively, binding experiments are performed with fresh human platelets prepared as described in section I (Inhibition of ADP-Mediated Platelet Aggregation in vitro), except that platelets are resuspended in Hepes-Tyrode's buffer containing 0.1% BSA (Sigma, St. Louis, Mo.) at a concentration of 6.66×10^8 platelets/mil. Very similar results are obtained with fresh and outdated platelets.
A platelet ADP receptor binding assay (ARB) using the tritiated potent agonist ligand [^3H]2-MeS-ADP (Jantzen, H. M. et al. (1999) Thromb. Hemost. 81:111-117) has been adapted to the 96-well microtiter format. In an assay volume of 0.2 ml Hepes-Tyrode's buffer with 0.1% BSA and 0.6% DMSO, 1×10^8 apyrase-washed platelets are preincubated in 96-well flat bottom microtiter plates for 5 minutes with serial dilutions of test compounds before addition of 1 nM [^3H]2-MeS-ADP ([^3H]2-methylthioadenosine-5′-diphosphate, ammonium salt; specific activity 20-50 Ci/mmole, obtained by custom synthesis from Amersham Life Science, Inc., Arlington Heights, Ill., or NEN Life Science Products, Boston, Mass.). Total binding is determined in the absence of test compounds. Samples for nonspecific binding may contain 10 μM unlabelled 2-MeS-ADP (RBI, Natick, Mass.). After incubation for 15 minutes at room temperature, unbound radioligand is separated by rapid filtration and two washes with cold (4-8° C.) Binding Wash Buffer (10 mM Hepes pH 7.4, 138 mM NaCl) using a 96-well cell harvester (Minidisc 96, Skatron Instruments, Sterling, Va.) and 8×12 GF/C glassfiber filtermats (Printed Filtermat A, for 1450 Microbeta, Wallac Inc., Gaithersburg, Md.). The platelet-bound radioactivity on the filtermats is determined in a scintillation counter (Microbeta 1450, Wallac Inc., Gaithersburg, Md.). Specific binding is determined by subtraction of non-specific binding from total binding, and specific binding in the presence of test compounds is expressed as % of specific binding in the absence of test compound dilutions. IC50s were derived by non-linear regression analysis.
A word on the IC50: it is the midpoint of a concentration-inhibition curve. A lower IC50 goes with inhibition by little substance. In the case of `N#Cc1ccc2c(=O)n(-c3ccc(C(=O)NC(C(=O)O)c4ccc(Cl)s4)cc3)ccc2c1` (centres unmarked) [Compound 98, 2-(5-chlorothiophen-2-yl)-2-(4-(6-cyano-1-oxoisoquinolin-2(1H)-yl)benzamido) acetic acid], the IC50 is above 0.5 µM.
For the compound `CNc1cc2[nH]c(=O)n(-c3ccc(C(=O)NC(c4cccc(F)c4)c4nnn[nH]4)cc3)c(=O)c2cc1F` (centres unmarked) [Compound 24, 4-(6-fluoro-7-(methylamino)-2,4-dioxo-1,2-dihydroquinazolin-3(4H)-yl)-N-((3-fluorophenyl)(1H-tetrazol-5-yl)methyl)benzamide], the IC50 was above 0.5 µM.
Take `CNc1cc2c(=O)n(-c3ccc(C(=O)NC(c4nnn[nH]4)c4ccc(Cl)s4)cc3)c(=O)[nH]c2cc1F` (centres unmarked) [Compound 49, N-((5-chlorothiophen-2-yl)(1H-tetrazol-5-yl)methyl)-4-(7-fluoro-6-(methylamino)-2,4-dioxo-1,2-dihydroquinazolin-3(4H)-yl)benzamide]: the concentration for half-maximal inhibition (IC50) is above 0.5 µM.
Next, `CNc1cc2[nH]c(=O)n(-c3ccc(NC(=O)NC(C(=O)O)c4ccc(Cl)s4)cc3)c(=O)c2cc1F` (centres unmarked) [Compound 110, 2-(5-chlorothiophen-2-yl)-2-(3-(4-(6-fluoro-7-(methylamino)-2,4-dioxo-1,2-dihydroquinazolin-3(4H)-yl)phenyl)ureido)acetic acid]: above 0.5 µM; `CNc1cc2[nH]c(=O)n(-c3ccc(C(=O)NC(C(=O)OC)c4ccc(Cl)s4)cc3)c(=O)c2cc1F` (centres unmarked) [Compound 18]: above 0.5 µM.
Then `NC(=O)c1ccc2c(=O)n(-c3ccc(C(=O)NC(C(=O)O)c4ccc(Cl)s4)cc3)ccc2c1` (centres unmarked) [Compound 94, 2-(4-(6-carbamoyl-1-oxoisoquinolin-2(1H)-yl)benzamido)-2-(5-chlorothiophen-2-yl)acetic acid], with above 0.5 µM; and `O=C(NC(C(=O)O)c1cccs1)c1ccc(-n2ccc3ccccc3c2=O)cc1` (centres unmarked) [Compound 97, 2-(4-(1-oxoisoquinolin-2(1H)-yl)benzamido)-2-(thiophen-2-yl)acetic acid], with above 0.5 µM.
For the compound `CNc1cc2c(cc1F)C(=O)N(c1ccc(C(=O)NC(Cc3ccccc3)C(=O)O)cc1)CO2` (centres unmarked) [Compound 59, 2-(4-(6-fluoro-7-(methylamino)-4-oxo-2H-benzo[e][1,3]oxazin-3(4H)-yl)benzamido)-3-phenylpropanoic acid], the 50% inhibitory concentration (IC50) is above 0.5 µM.
As for `CNc1cc2[nH]c(=O)n(-c3ccc(C(=O)NC(C(=O)O)c4cccs4)cc3)c(=O)c2cc1F` (centres unmarked) [Compound 8, 2-(4-(6-fluoro-7-(methylamino)-2,4-dioxo-1,2-dihydroquinazolin-3(4H)-yl)benzamido)-2-(thiophen-2-yl)acetic acid], the half-inhibitory concentration (IC50) was above 0.5 µM.
Then `Cc1ccc2c(c1)OCN(c1ccc(C(=O)NC(C(=O)O)c3ccc(Cl)s3)cc1)C2=O` (centres unmarked) [Compound 69, 2-(5-chlorothiophen-2-yl)-2-(4-(7-methyl-4-oxo-2H-benzo[e][1,3]oxazin-3(4H)-yl)benzamido)acetic acid], with above 0.5 µM.
Next, `CCc1ccc2c(c1)C(=O)N(c1ccc(C(=O)NC(C(=O)O)c3ccc(Cl)s3)cc1)CO2` (centres unmarked) [Compound 72, 2-(5-chlorothiophen-2-yl)-2-(4-(6-ethyl-4-oxo-2H-benzo[e][1,3]oxazin-3(4H)-yl)benzamido)acetic acid]: above 0.5 µM.
Then `CNc1cc2c(cc1F)C(=O)N(c1ccc(C(=O)NC(c3ccc(Cl)s3)c3nnnn3C)cc1)CO2` (centres unmarked) [Compound 73, N-((5-chlorothiophen-2-yl)(1-methyl-1H-tetrazol-5-yl)methyl)-4-(6-fluoro-7-(methylamino)-4-oxo-2H-benzo[e][1,3]oxazin-3(4H)-yl)benzamide], with 0.05 to 0.5 µM.
As to `COc1cc2ccn(-c3ccc(C(=O)NC(C(=O)O)c4ccc(Cl)s4)cc3)c(=O)c2cc1F` (centres unmarked) [Compound 92, 2-(5-chlorothiophen-2-yl)-2-(4-(7-fluoro-6-methoxy-1-oxoisoquinolin-2(1H)-yl)benzamido)acetic acid], the half-inhibitory concentration (IC50) is above 0.5 µM.
In turn, `CNc1cc2c(cc1F)C(=O)N(c1ccc(C(=O)NC(Cc3cccs3)C(=O)O)cc1)CO2` (centres unmarked) [Compound 64, 2-(4-(6-fluoro-7-(methylamino)-4-oxo-2H-benzo[e][1,3]oxazin-3(4H)-yl)benzamido)-3-(thiophen-2-yl)propanoic acid] displayed an IC50 of 0.05 to 0.5 µM.
Take `O=C(NC(C(=O)O)c1ccc(Cl)s1)c1ccc(-n2ccc3ccccc3c2=O)cc1` (centres unmarked) [Compound 96, 2-(5-chlorothiophen-2-yl)-2-(4-(1-oxoisoquinolin-2(1H)-yl)benzamido)acetic acid]: the concentration for half-maximal inhibition (IC50) was above 0.5 µM.
Then `Cc1ccc2c(c1)C(=O)N(c1ccc(C(=O)NC(C(=O)O)c3ccc(Cl)s3)cc1)CO2` (centres unmarked) [Compound 77, 2-(5-chlorothiophen-2-yl)-2-(4-(6-methyl-4-oxo-2H-benzo[e][1,3]oxazin-3(4H)-yl)benzamido)acetic acid], with above 0.5 µM; and `CNc1cc2[nH]c(=O)n(-c3ccc(C(=O)NC(c4nsc(=O)[nH]4)c4ccc(Cl)s4)cc3)c(=O)c2cc1F` (centres unmarked) [Compound 25, N-((5-chlorothiophen-2-yl)(5-oxo-4,5-dihydro-1,2,4-thiadiazol-3-yl)methyl)-4-(6-fluoro-7-(methylamino)-2,4-dioxo-1,2-dihydroquinazolin-3(4H)-yl)benzamide], with 0.05 to 0.5 µM.
Then `CNc1cc2[nH]c(=O)n(-c3ccc(C(=O)NCc4ccc(Cl)s4)cc3)c(=O)c2cc1F` [Compound 4, N-((5-chlorothiophen-2-yl)methyl)-4-(6-fluoro-7-(methylamino)-2,4-dioxo-1,2-dihydroquinazolin-3(4H)-yl)benzamide], with 0.05 to 0.5 µM; and `N#Cc1cn(-c2ccc(C(=O)NC(C(=O)O)c3ccc(Cl)s3)cc2)c(=O)c2ccccc12` (centres unmarked) [Compound 100, 2-(5-chlorothiophen-2-yl)-2-(4-(4-cyano-1-oxoisoquinolin-2(1H)-yl)benzamido)acetic acid], with above 0.5 µM; and `CNc1cc2[nH]c(=O)n(-c3ccc(C(=O)NC(c4cccc(C)c4)c4nnn[nH]4)cc3)c(=O)c2cc1F` (centres unmarked) [Compound 22], with above 0.5 µM.
Next, `CNc1cc2[nH]c(=O)n(-c3ccc(C(=O)NC(Cc4cccs4)C(=O)O)cc3)c(=O)c2cc1F` (centres unmarked) [Compound 9, 2-(4-(6-fluoro-7-(methylamino)-2,4-dioxo-1,2-dihydroquinazolin-3(4H)-yl)benzamido)-3-(thiophen-2-yl)propanoic acid]: above 0.5 µM; `CNc1cc2c(cc1F)C(=O)N(c1ccc(C(=O)N[C@@H](Cc3ccccc3)C(=O)O)cc1)CO2` [Compound 60, (S)-2-(4-(6-fluoro-7-(methylamino)-4-oxo-2H-benzo[e][1,3]oxazin-3(4H)-yl)benzamido)-3-phenylpropanoic acid]: 0.05 to 0.5 µM.
In the case of `CCc1ccc2c(=O)n(-c3ccc(C(=O)NC(C(=O)O)c4ccc(Cl)s4)cc3)ccc2c1` (centres unmarked) [Compound 93, 2-(5-chlorothiophen-2-yl)-2-(4-(6-ethyl-1-oxoisoquinolin-2(1H)-yl)benzamido)acetic acid], the IC50 was above 0.5 µM.
Then `CNc1cc2[nH]c(=O)n(-c3ccc(C(=O)NC(c4cccc(C(F)(F)F)c4)c4nnn[nH]4)cc3)c(=O)c2cc1F` (centres unmarked) [Compound 34], with above 0.5 µM.
Next, `O=C(NC(C(=O)O)c1ccc(Cl)s1)c1ccc(-n2cc(Br)c3ccccc3c2=O)cc1` (centres unmarked) [Compound 102, 2-(4-(4-bromo-1-oxoisoquinolin-2(1H)-yl)benzamido)-2-(5-chlorothiophen-2-yl)acetic acid]: above 0.5 µM; `CNc1cc2cnn(-c3ccc(C(=O)NC(C(=O)O)c4ccc(Cl)s4)cc3)c(=O)c2cc1F` (centres unmarked) [Compound 117, 2-(5-chlorothiophen-2-yl)-2-(4-(7-fluoro-6-(methylamino)-1-oxophthalazin-2(1H)-yl)benzamido)acetic acid]: 0.05 to 0.5 µM.
